# Test results taken from patent publication US11834430B2, “Compounds useful as inhibitors of isoprenylcysteine carboxyl methyltransferase” (AGENCY FOR SCIENCE, TECHNOLOGY AND RESEARCH, priority 2017, dated 2023).
# “And” between values parts separate entries of the source, which are not always exact repeats. Identical values can stand only once.
# Columns and labels:
# [1] = test system: MIAPaCa-2 cells; experiment: Cell proliferation assay (CellTiter-Glo); type: cell-based; conditions: Homo sapiens, MIA PaCa-2, 72 h, 3 days
# Experimental: Cell proliferation assay was performed using CellTiter-Glo Luminescent Cell Viability Assay (Promega) following manufacturer's instructions. The MIAPaCa-2 cells (ATCC) were treated with compounds that were serial diluted in the media (DMEM). Plates were incubated for 3 days at 37° C. in 5% CO2. After 3 days, an equal volume of Cell Titer Glo reagent was added. Plates were rocked on a rotator for 2 hours. 100 μL of each well was transferred to a 96-well opaque plate, and luminescence emitted was measured with the Tecan Safire II.
# [2] = biological target: human ICMT (Homo sapiens (Human), UniProt O60725); experiment: ICMT biochemical assay (Methyltransferase-Glo)
# Experimental: Recombinant human ICMT was prepared by infection of Sf9 cells with a recombinant baculovirus containing the entire open reading frame of the human ICMT cDNA.
# Cells producing ICMT were harvested 66 hours post-infection. The cells are homogenized and resuspended in 5 mM NaHPO4 (pH 7.0), and a cocktail of protease inhibitors. The membrane was pelleted, after removal of nuclei and debris, at 100,000×g for 1 hour. Membranes were resuspended in 5 mM NaHPO4 (pH 7.0) with 5 mM EDTA at 10-12 mg/ml. The suspension was stored at −80° C. in multiple aliquots.
# An ICMT enzymatic assay was developed using Promega's Methyltransferase-GloTMreagents. In the assay, ICMT catalyzes the methylation of the N-Acetyl-S-farnesyl-L-cysteine by transferring a methyl group from SAM to the farnesylated cysteine and further converts the SAM to SAH. The methyltransferase activity is measured based on the amount of SAH produced from the reaction through the use of coupling enzymes that convert the SAH to ATP. The MTase-Glo detection solution then catalyzes the formation of light from ATP.
# A final concentration of 2.0 μM and 20 μM of SAM and peptide were added and further incubated for 90 minutes at room temperature before adding the MTase Glo and detection reagent. Reaction signals were detected using microplate readers on luminescent mode (Satire Tecan). The IC50 was determined by nonlinear regression, using GraphPad Prism version, 5.03.
# [3] = test system: Prelamin A in MIAPaCa-2 cells; experiment: Prelamin A accumulation assay (Western blot); type: cell-based; conditions: various concentrations, 48 hours
# Experimental: The MIAPaCa-2 cells were seeded in 6-well plates. After seeding for 24 hours, the cells were treated with either DMSO or varying concentration of the compound and incubated for 48 hours. The cells were trypsinized and the lysate was extracted with RIPA buffer (Santa Cruz). The total protein concentration of lysate is quantified using the standard Bradford assay (Biorad protein assay, microplate standard assay).
# Western blot analysis was performed using antibody against Prelamin A in MIAPaCa cells treated with compound at various concentration for 48 hours. 15.0 μg of cell lysate was run on a SDS-PAGE and then transferred to nitrocellulose membrane. The membrane was then incubated in blocking buffer [PBS (phosphate buffered saline) with 0.1% Tween 20 and 5% dry milk] at room temperature for 1 hour, followed by incubation with Prelamin A antibody (rat monoclonal antibody) at 1:2500 dilution in PBS, 0.1% Tween 20 and 5% dry milk overnight at 4° C., followed by three washes (15 minutes each wash) in PBS, 0.1% Tween 20 on the next day.
# The nitrocellulose membrane was then incubated with secondary antibody solution at room temperature for 1 hour, washed three times before developed with enhanced Chemiluminescence (ECL) mixture (Amersham, Aylesbury, United Kingdom), incubated for 5 minutes and exposed using Fluor Chem E System instrument (Protein Simple).
# [4] = ICMT membrane extract from Sf-9 cells, 30 min preincubation, 90 min reaction
# Sequence of human ICMT (O60725 whole entry): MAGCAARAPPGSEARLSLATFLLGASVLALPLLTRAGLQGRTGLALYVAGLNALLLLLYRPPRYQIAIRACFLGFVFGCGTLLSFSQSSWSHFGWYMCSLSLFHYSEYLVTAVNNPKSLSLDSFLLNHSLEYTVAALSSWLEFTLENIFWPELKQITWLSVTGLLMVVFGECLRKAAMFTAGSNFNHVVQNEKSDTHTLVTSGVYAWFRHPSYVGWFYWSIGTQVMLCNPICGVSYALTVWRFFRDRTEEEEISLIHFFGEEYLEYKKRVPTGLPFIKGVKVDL
SMILES,"IC50 [2, 4]",further results
"Cn1nccc1-c1cc(OCCOc2ccc(C#N)cc2)ccn1 [Compound 59, 4-(2-((2-(1-methyl-1H-pyrazol-5-yl)pyridin-4-yl)oxy)ethoxy)benzonitrile]",20000 pM,GI50 [1]: 5520 nM; Prelamin A accumulation (Western blot) [3]: Prelamin A accumulation
"Cn1nccc1-c1cc(OCCOc2ccc(C#N)cc2F)ccn1 [Compound 69, 3-fluoro-4-(2-((2-(1-methyl-1H-pyrazol-5-yl)pyridin-4-yl)oxy)ethoxy)benzonitrile]",2800 pM and 1400 pM and 1500 pM,GI50 [1]: 5050 nM; Prelamin A accumulation (Western blot) [3]: Prelamin A accumulation
"Cc1nccn1-c1cccc(OC[C@@H](C)Oc2ccc(C#N)cc2F)c1 [Compound 78, (R)-3-fluoro-4-((1-(3-(2-methyl-1H-imidazol-1-yl)phenoxy)propan-2-yl)oxy)benzonitrile]",,GI50 [1]: 6020 nM; IC50 ([2]; unit printed in cell (pM)): 75 pM
"Cn1nccc1-c1cc(F)cc(OCCOc2ccc(C#N)cc2)c1 [Compound 94, 4-(2-(3-fluoro-5-(1-methyl-1H-pyrazol-5-yl)phenoxy)ethoxy)benzonitrile]",1600 pM,
"Cn1nccc1-c1cc(OCCOc2ccc(Cl)cc2F)ccn1 [Compound 101, 4-(2-(4-chloro-2-fluorophenoxy)ethoxy)-2-(1-methyl-1H-pyrazol-5-yl)pyridine]",29000 pM,
"Cc1nccn1-c1cccc(OCCOc2ccc(Cl)cc2F)c1 [Compound 102, 1-(3-(2-(4-chloro-2-fluorophenoxy)ethoxy)phenyl)-2-methyl-1H-imidazole]",68000 pM,
"Cc1nccn1-c1cc(OCCOc2ccc(Cl)cc2F)ccn1 [Compound 103, 4-(2-(4-chloro-2-fluorophenoxy)ethoxy)-2-(2-methyl-1H-imidazol-1-yl)pyridine]",3100 pM,
"Cc1nccn1-c1cc(OCCOc2ccc(Br)cc2F)ccn1 [Compound 104, 4-(2-(4-bromo-2-fluorophenoxy)ethoxy)-2-(2-methyl-1H-imidazol-1-yl)pyridine]",1700 pM,
"Cn1nccc1-c1cc(F)cc(OCCOc2ccc(C#N)cc2F)c1 [Compound 105, 3-fluoro-4-(2-(3-fluoro-5-(1-methyl-1H-pyrazol-5-yl)phenoxy)ethoxy)benzonitrile]",6000 pM,
"Cn1nccc1-c1cccc(OCCOc2ccc(C#N)cc2F)n1 [Compound 106, 3-fluoro-4-(2-((6-(1-methyl-1H-pyrazol-5-yl)pyridin-2-yl)oxy)ethoxy)benzonitrile]",300000 to 1e+06 pM,
"Cc1nccn1-c1cc(OCCOc2ccc(C#N)cc2)ccc1F [Compound 108, 4-(2-(4-fluoro-3-(2-methyl-1H-imidazol-1-yl)phenoxy)ethoxy)benzonitrile]",51000 pM,
"Cc1nccn1-c1cc(OCCOc2ccc(C#N)cn2)ccc1F [Compound 109, 6-(2-(4-fluoro-3-(2-methyl-1H-imidazol-1-yl)phenoxy)ethoxy)nicotinonitrile]",170000 pM,
"Cn1nccc1-c1cccc(OCCOc2ccc(Cl)cc2)c1 [Compound 110, 5-(3-(2-(4-chlorophenoxy)ethoxy)phenyl)-1-methyl-1H-pyrazole]",270000 pM,
"Cc1nccn1-c1cccc(OCCOc2ccc(C#N)cc2C(F)(F)F)c1 [Compound 111, 4-(2-(3-(2-methyl-1H-imidazol-1-yl)phenoxy)ethoxy)-3-(trifluoromethyl)benzonitrile]",180000 pM,
"Cc1nccn1-c1cccc(OCCOc2ccc(Cl)cc2)c1 [Compound 112, 1-(3-(2-(4-chlorophenoxy)ethoxy)phenyl)-2-methyl-1H-imidazole]",250000 pM,
"Cn1nccc1-c1cc(OCCOc2ccc(C#N)cc2F)ccc1F [Compound 113, 3-fluoro-4-(2-(4-fluoro-3-(1-methyl-1H-pyrazol-5-yl)phenoxy)ethoxy)benzonitrile]",22000 pM,
"Cc1nccn1-c1cc(OCCOc2ccc(Cl)cc2)ccn1 [Compound 115, 4-(2-(4-chlorophenoxy)ethoxy)-2-(2-methyl-1H-imidazol-1-yl)pyridine]",160000 pM,
"N#Cc1ccc(OCCOc2cccc(-c3ccnn3C3CC3)c2)cc1 [Compound 117, 4-(2-(3-(1-cyclopropyl-1H-pyrazol-5-yl)phenoxy)ethoxy)benzonitrile]",55000 pM,
"N#Cc1ccc(OCCOc2ccnc(-n3cnnn3)c2)c(F)c1 [Compound 120, 4-(2-((2-(1H-tetrazol-1-yl)pyridin-4-yl)oxy)ethoxy)-3-fluorobenzonitrile]",12000 pM,

# Further lines, with some results ahead:
"IC50 [2, 4]",SMILES,further results
440 pM,"Cc1nccn1-c1cc(OCCOc2ccc(C#N)cc2F)ccn1 [Compound 53, 3-fluoro-4-(2-((2-(2-methyl-1H-imidazol-1-yl)pyridin-4-yl)oxy)ethoxy)benzonitrile]",GI50 [1]: 2200 nM
27000 pM,"Cc1nccn1-c1cc(OCCOc2ccc(C#N)cn2)ccn1 [Compound 70, 6-(2-((2-(2-methyl-1H-imidazol-1-yl)pyridin-4-yl)oxy)ethoxy)nicotinonitrile]",GI50 [1]: 5990 nM; Prelamin A accumulation (Western blot) [3]: Prelamin A accumulation
6600 pM,"Cn1nccc1-c1cc(OCCOc2ccc(C#N)cc2)ccc1F [Compound 93, 4-(2-(4-fluoro-3-(1-methyl-1H-pyrazol-5-yl)phenoxy)ethoxy)benzonitrile]",
10000 pM,"Cc1nncn1-c1cc(OCCOc2ccc(C#N)cc2F)ccn1 [Compound 95, 3-fluoro-4-(2-((2-(3-methyl-4H-1,2,4-triazol-4-yl)pyridin-4-yl)oxy)ethoxy)benzonitrile]",
400000 to 3e+06 pM,"Cn1nccc1-c1ccc(F)c(OCCOc2ccc(C#N)cc2)c1 [Compound 96, 4-(2-(2-fluoro-5-(1-methyl-1H-pyrazol-5-yl)phenoxy)ethoxy)benzonitrile]",
470000 to 1e+06 pM,"Cn1nccc1-c1cc(OCCOc2ncc(C#N)cc2F)ccn1 [Compound 97, 5-fluoro-6-(2-((2-(1-methyl-1H-pyrazol-5-yl)pyridin-4-yl)oxy)ethoxy)nicotinonitrile]",
10000 pM,"Cn1nccc1-c1cc(OCCOc2ccc(Cl)cc2C#N)ccn1 [Compound 98, 5-chloro-2-(2-((2-(1-methyl-1H-pyrazol-5-yl)pyridin-4-yl)oxy)ethoxy)benzonitrile]",
2600 pM,"Cc1nccn1-c1cc(OCCOc2ccc(Cl)cc2C#N)ccn1 [Compound 99, 5-chloro-2-(2-((2-(2-methyl-1H-imidazol-1-yl)pyridin-4-yl)oxy)ethoxy)benzonitrile]",
1800 pM,"Cn1nccc1-c1cc(OCCOc2ccc(C#N)cc2Cl)ccn1 [Compound 100, 3-chloro-4-(2-((2-(1-methyl-1H-pyrazol-5-yl)pyridin-4-yl)oxy)ethoxy)benzonitrile]",
150000 pM,"Cn1nccc1-c1cc(OCCOc2ncc(C#N)cc2F)ccc1F [Compound 107, 5-fluoro-6-(2-(4-fluoro-3-(1-methyl-1H-pyrazol-5-yl)phenoxy)ethoxy)nicotinonitrile]",
82000 pM,"Cc1nccn1-c1cccc(OCCOc2ccc(F)cc2C#N)c1 [Compound 114, 5-fluoro-2-(2-(3-(2-methyl-1H-imidazol-1-yl)phenoxy)ethoxy)benzonitrile]",
9500 pM,"N#Cc1ccc(OCCOc2cccc(-c3ccnn3C3CC3)c2)c(F)c1 [Compound 116, 4-(2-(3-(1-cyclopropyl-1H-pyrazol-5-yl)phenoxy)ethoxy)-3-fluorobenzonitrile]",
2200 pM,"N#Cc1ccc(OCCOc2cccc(-c3ccnn3C3CC3)c2)c(Cl)c1 [Compound 118, 3-chloro-4-(2-(3-(1-cyclopropyl-1H-pyrazol-5-yl)phenoxy)ethoxy)benzonitrile]",
80000 pM,"Cc1nccn1-c1cc(OCCOc2ccc(F)cc2C#N)ccn1 [Compound 119, 5-fluoro-2-(2-((2-(2-methyl-1H-imidazol-1-yl)pyridin-4-yl)oxy)ethoxy)benzonitrile]",
70000 pM,"Cn1nccc1-c1cc(OCCOc2ccc(Br)cc2F)ccn1 [Compound 121, 4-(2-(4-bromo-2-fluorophenoxy)ethoxy)-2-(1-methyl-1H-pyrazol-5-yl)pyridine]",
